Experimental data from US20230085307A1, “PYRIDAZINONE COMPOUND AND HERBICIDE” (NISSAN CHEMICAL CORPORATION, priority 2019, published 2023).

Assays:
late watergrass = experiment: Test Example 1: herbicidal activity, application before weed generation under submerged conditions (Table 16, symbol A); assay type: in vivo, late watergrass (Echinochloa oryzicola); conditions: 320 g/ha applied herbicide
Procedure, shortened: (§1)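 Submerged Wagner pots (alluvial soil, 4 cm water) sown with weed seeds and planted with 2.5-leaf rice seedlings; emulsifiable concentrate diluted in water applied to water surface on sowing day. Held in greenhouse at 25-30 °C; injury scored 0-5 by herbicidal rate after three weeks.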

Japanese bulrush = experiment: Test Example 1: herbicidal activity, application before weed generation under submerged conditions (Table 16, symbol B); assay type: in vivo, Japanese bulrush (Schoenoplectus juncoides); conditions: 320 g/ha applied herbicide
Procedure, shortened: as §1

oval-leafed pondweed = experiment: Test Example 1: herbicidal activity, application before weed generation under submerged conditions (Table 16, symbol C); assay type: in vivo, oval-leafed pondweed (Monochoria vaginalis); conditions: 320 g/ha applied herbicide
Procedure, shortened: as §1

barnyard grass [1] = experiment: Test Example 3: herbicidal effect by foliage application, Wagner pot (Table 18, symbol H); assay type: in vivo, barnyard grass (Echinochloa crus-galli)
Procedure, shortened: (§2)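 Plants were sown in alluvial soil held under 0.1–0.5 cm standing water and grown 14 days in a greenhouse at 25–30 °C. An emulsifiable formulation, water-diluted to the set dose, was then sprayed onto the foliage, and effects were scored three weeks later using previously defined criteria.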

Chinese sprangletop = experiment: Test Example 3: herbicidal effect by foliage application, Wagner pot (Table 18, symbol D); assay type: in vivo, chinese sprangletop (Leptochloa chinensis)
Procedure, shortened: as §2

rice flat sedge = experiment: Test Example 3: herbicidal effect by foliage application, Wagner pot (Table 18, symbol E); assay type: in vivo, rice flat sedge (Cyperus iria)
Procedure, shortened: as §2

southern crabgrass [2] = experiment: Test Example 4: herbicidal effect by soil treatment (Table 19, symbol F); assay type: in vivo, southern crabgrass (Digitaria ciliaris)
Procedure, shortened: (§3)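 Scoring uses the grading scale of an earlier test, three weeks post-application. Treatment consists of spraying a diluted emulsion formulation across the surface of sterilized diluvial soil in which seeds are buried near 1.5 cm deep; boxes are kept in a greenhouse between 25° C. and 30° C.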

green foxtail [3] = experiment: Test Example 4: herbicidal effect by soil treatment (Table 19, symbol G); assay type: in vivo, green foxtail (Setaria viridis)
Procedure, shortened: as §3

barnyard grass [4] = experiment: Test Example 4: herbicidal effect by soil treatment (Table 19, symbol H); assay type: in vivo, barnyard grass (Echinochloa crus-galli)
Procedure, shortened: as §3

wild oat [5] = experiment: Test Example 4: herbicidal effect by soil treatment (Table 19, symbol I); assay type: in vivo, wild oat (Avena fatua)
Procedure, shortened: as §3

blackgrass [6] = experiment: Test Example 4: herbicidal effect by soil treatment (Table 19, symbol J); assay type: in vivo, blackgrass (Alopecurus myosuroides)
Procedure, shortened: as §3

Italian ryegrass [7] = experiment: Test Example 4: herbicidal effect by soil treatment (Table 19, symbol K); assay type: in vivo, Italian ryegrass (Lolium multiflorum)
Procedure, shortened: as §3

windgrass [8] = experiment: Test Example 4: herbicidal effect by soil treatment (Table 19, symbol L); assay type: in vivo, windgrass (Apera spica-venti)
Procedure, shortened: as §3

velvetleaf [9] = experiment: Test Example 4: herbicidal effect by soil treatment (Table 19, symbol M); assay type: in vivo, velvetleaf (Abutilon theophrasti)
Procedure, shortened: as §3

redroot pigweed [10] = experiment: Test Example 4: herbicidal effect by soil treatment (Table 19, symbol N); assay type: in vivo, redroot pigweed (Amaranthus retroflexus)
Procedure, shortened: as §3

lambsquarters [11] = experiment: Test Example 4: herbicidal effect by soil treatment (Table 19, symbol O); assay type: in vivo, lambsquarters (Chenopodium album)
Procedure, shortened: as §3

chickweed [12] = experiment: Test Example 4: herbicidal effect by soil treatment (Table 19, symbol P); assay type: in vivo, common chickweed (Stellaria media)
Procedure, shortened: as §3

persian speedwell [13] = experiment: Test Example 4: herbicidal effect by soil treatment (Table 19, symbol R); assay type: in vivo, Persian speedwell (Veronica persica)
Procedure, shortened: as §3

southern crabgrass [14] = experiment: Test Example 5: herbicidal effect by foliage application, plastic box (Table 20, symbol F); assay type: in vivo, southern crabgrass (Digitaria ciliaris); conditions: foliage application, 320 g/ha, evaluated three weeks after application
Procedure, shortened: (§4)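 Post-emergence foliar test in sterilized diluvial soil. Compound applied as water-diluted emulsion at a predetermined rate to 14-day-old plants; evaluation at three weeks.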

green foxtail [15] = experiment: Test Example 5: herbicidal effect by foliage application, plastic box (Table 20, symbol G); assay type: in vivo, green foxtail (Setaria viridis); conditions: foliage application, 320 g/ha, evaluated three weeks after application
Procedure, shortened: as §4

barnyard grass [16] = experiment: Test Example 5: herbicidal effect by foliage application, plastic box (Table 20, symbol H); assay type: in vivo, barnyard grass (Echinochloa crus-galli); conditions: foliage application, 320 g/ha, evaluated three weeks after application
Procedure, shortened: as §4

wild oat [17] = experiment: Test Example 5: herbicidal effect by foliage application, plastic box (Table 20, symbol I); assay type: in vivo, wild oat (Avena fatua); conditions: foliage application, 320 g/ha, evaluated three weeks after application
Procedure, shortened: as §4

blackgrass [18] = experiment: Test Example 5: herbicidal effect by foliage application, plastic box (Table 20, symbol J); assay type: in vivo, blackgrass (Alopecurus myosuroides); conditions: foliage application, 320 g/ha, evaluated three weeks after application
Procedure, shortened: as §4

Italian ryegrass [19] = experiment: Test Example 5: herbicidal effect by foliage application, plastic box (Table 20, symbol K); assay type: in vivo, Italian ryegrass (Lolium multiflorum); conditions: foliage application, 320 g/ha, evaluated three weeks after application
Procedure, shortened: as §4

windgrass [20] = experiment: Test Example 5: herbicidal effect by foliage application, plastic box (Table 20, symbol L); assay type: in vivo, windgrass (Apera spica-venti); conditions: foliage application, 320 g/ha, evaluated three weeks after application
Procedure, shortened: as §4

velvetleaf [21] = experiment: Test Example 5: herbicidal effect by foliage application, plastic box (Table 20, symbol M); assay type: in vivo, velvetleaf (Abutilon theophrasti); conditions: foliage application, 320 g/ha, evaluated three weeks after application
Procedure, shortened: as §4

redroot pigweed [22] = experiment: Test Example 5: herbicidal effect by foliage application, plastic box (Table 20, symbol N); assay type: in vivo, redroot pigweed (Amaranthus retroflexus); conditions: foliage application, 320 g/ha, evaluated three weeks after application
Procedure, shortened: as §4

lambsquarters [23] = experiment: Test Example 5: herbicidal effect by foliage application, plastic box (Table 20, symbol O); assay type: in vivo, lambsquarters (Chenopodium album); conditions: foliage application, 320 g/ha, evaluated three weeks after application
Procedure, shortened: as §4

chickweed [24] = experiment: Test Example 5: herbicidal effect by foliage application, plastic box (Table 20, symbol P); assay type: in vivo, common chickweed (Stellaria media); conditions: foliage application, 320 g/ha, evaluated three weeks after application
Procedure, shortened: as §4

false cleavers = experiment: Test Example 5: herbicidal effect by foliage application, plastic box (Table 20, symbol Q); assay type: in vivo, false cleavers (Galium spurium); conditions: foliage application, 320 g/ha, evaluated three weeks after application
Procedure, shortened: as §4

persian speedwell [25] = experiment: Test Example 5: herbicidal effect by foliage application, plastic box (Table 20, symbol R); assay type: in vivo, Persian speedwell (Veronica persica); conditions: foliage application, 320 g/ha, evaluated three weeks after application
Procedure, shortened: as §4

[26] = amount of applied herbicide 320 g/ha

| Compound | Herbicidal effect on A: late watergrass (grade 0-5) (late watergrass) | Herbicidal effect on B: Japanese bulrush (grade 0-5) (Japanese bulrush) | Herbicidal effect on C: oval-leafed pondweed (grade 0-5) (oval-leafed pondweed) | herbicidal effect on F: southern crabgrass (southern crabgrass [14]) | herbicidal effect on G: green foxtail (green foxtail [15]) | herbicidal effect on H: barnyard grass (barnyard grass [16]) | herbicidal effect on I: wild oat (wild oat [17]) | herbicidal effect on J: blackgrass (blackgrass [18]) | herbicidal effect on K: Italian ryegrass (Italian ryegrass [19]) | herbicidal effect on L: windgrass (windgrass [20]) | herbicidal effect on M: velvetleaf (velvetleaf [21]) | herbicidal effect on N: redroot pigweed (redroot pigweed [22]) | herbicidal effect on O: lambsquarters (lambsquarters [23]) | herbicidal effect on P: chickweed (chickweed [24]) | herbicidal effect on Q: false cleavers (false cleavers) | herbicidal effect on R: persian speedwell (persian speedwell [25]) | other results |
| --- | --- | --- | --- | --- | --- | --- | --- | --- | --- | --- | --- | --- | --- | --- | --- | --- | --- |
| COc1cc(F)ccc1-c1sc2ccc(F)cc2c1-c1c(O)c(C)nn(C)c1=O [2-083] | 2 (Herbicidal rate of 20% or more and less than 40%) | 1 (Herbicidal rate of 5% or more and less than 20%) | 3 (Herbicidal rate of 40% or more and less than 70%) | 4 (Herbicidal rate of 70% or more and less than 90%) | 5 (Herbicidal rate of 90% or more (almost completely withered)) | 5 (Herbicidal rate of 90% or more (almost completely withered)) | 5 (Herbicidal rate of 90% or more (almost completely withered)) | 5 (Herbicidal rate of 90% or more (almost completely withered)) | 4 (Herbicidal rate of 70% or more and less than 90%) | 5 (Herbicidal rate of 90% or more (almost completely withered)) | 5 (Herbicidal rate of 90% or more (almost completely withered)) | 5 (Herbicidal rate of 90% or more (almost completely withered)) | 5 (Herbicidal rate of 90% or more (almost completely withered)) | 5 (Herbicidal rate of 90% or more (almost completely withered)) | 5 (Herbicidal rate of 90% or more (almost completely withered)) | 5 (Herbicidal rate of 90% or more (almost completely withered)) | herbicidal effect on H (barnyard grass), rating 0-5 (barnyard grass [1]; 320 g/ha): 5 (Herbicidal rate of 90% or more (almost completely withered)); herbicidal effect on D (Chinese sprangletop), rating 0-5 (Chinese sprangletop; 320 g/ha): 4 (Herbicidal rate of 70% or more and less than 90%); herbicidal effect on E (rice flat sedge), rating 0-5 (rice flat sedge; 320 g/ha): 5 (Herbicidal rate of 90% or more (almost completely withered)); herbicidal effect rating, F: southern crabgrass (southern crabgrass [2]; 320 g/ha): 4 (Herbicidal rate of 70% or more and less than 90%); herbicidal effect rating, G: green foxtail (green foxtail [3]; 320 g/ha): 2 (Herbicidal rate of 20% or more and less than 40%); herbicidal effect rating, H: barnyard grass (barnyard grass [4]; 320 g/ha): 1 (Herbicidal rate of 5% or more and less than 20%); herbicidal effect rating, I: wild oat (wild oat [5]; 320 g/ha): 3 (Herbicidal rate of 40% or more and less than 70%); herbicidal effect rating, J: blackgrass (blackgrass [6]; 320 g/ha): 5 (Herbicidal rate of 90% or more (almost completely withered)); herbicidal effect rating, K: Italian ryegrass (Italian ryegrass [7]; 320 g/ha): 0 (Herbicidal rate of 5% or less (almost no effect)); herbicidal effect rating, L: windgrass (windgrass [8]; 320 g/ha): 4 (Herbicidal rate of 70% or more and less than 90%); herbicidal effect rating, M: velvetleaf (velvetleaf [9]; 320 g/ha): 2 (Herbicidal rate of 20% or more and less than 40%); herbicidal effect rating, N: redroot pigweed (redroot pigweed [10]; 320 g/ha): 5 (Herbicidal rate of 90% or more (almost completely withered)); herbicidal effect rating, O: lambsquarters (lambsquarters [11]; 320 g/ha): 5 (Herbicidal rate of 90% or more (almost completely withered)); herbicidal effect rating, P: chickweed (chickweed [12]; 320 g/ha): 4 (Herbicidal rate of 70% or more and less than 90%); herbicidal effect rating, R: persian speedwell (persian speedwell [13]; 320 g/ha): 4 (Herbicidal rate of 70% or more and less than 90%) |
| Cc1nn(C)c(=O)c(-c2c(-c3ccc4c(c3)OCO4)sc3ccc(Cl)cc23)c1O [2-125] | 0 (Herbicidal rate of 5% or less (almost no effect)) | 2 (Herbicidal rate of 20% or more and less than 40%) | 0 (Herbicidal rate of 5% or less (almost no effect)) | 0 (Herbicidal rate of 5% or less (almost no effect)) | 0 (Herbicidal rate of 5% or less (almost no effect)) | 2 (Herbicidal rate of 20% or more and less than 40%) | 0 (Herbicidal rate of 5% or less (almost no effect)) | 0 (Herbicidal rate of 5% or less (almost no effect)) | 0 (Herbicidal rate of 5% or less (almost no effect)) | 0 (Herbicidal rate of 5% or less (almost no effect)) | 4 (Herbicidal rate of 70% or more and less than 90%) | 3 (Herbicidal rate of 40% or more and less than 70%) | 4 (Herbicidal rate of 70% or more and less than 90%) | 5 (Herbicidal rate of 90% or more (almost completely withered)) | 3 (Herbicidal rate of 40% or more and less than 70%) | 5 (Herbicidal rate of 90% or more (almost completely withered)) | herbicidal effect on H: barnyard grass (barnyard grass [1]; [26]): 4 (Herbicidal rate of 70% or more and less than 90%); herbicidal effect on D: Chinese sprangletop (Chinese sprangletop; [26]): 3 (Herbicidal rate of 40% or more and less than 70%); herbicidal effect on E: rice flat sedge (rice flat sedge; [26]): 5 (Herbicidal rate of 90% or more (almost completely withered)); F: southern crabgrass, herbicidal effect rating (southern crabgrass [2]; [26]): 0 (Herbicidal rate of 5% or less (almost no effect)); G: green foxtail, herbicidal effect rating (green foxtail [3]; [26]): 0 (Herbicidal rate of 5% or less (almost no effect)); H: barnyard grass, herbicidal effect rating (barnyard grass [4]; [26]): 0 (Herbicidal rate of 5% or less (almost no effect)); I: wild oat, herbicidal effect rating (wild oat [5]; [26]): 0 (Herbicidal rate of 5% or less (almost no effect)); J: blackgrass, herbicidal effect rating (blackgrass [6]; [26]): 0 (Herbicidal rate of 5% or less (almost no effect)); K: Italian ryegrass, herbicidal effect rating (Italian ryegrass [7]; [26]): 0 (Herbicidal rate of 5% or less (almost no effect)); L: windgrass, herbicidal effect rating (windgrass [8]; [26]): 0 (Herbicidal rate of 5% or less (almost no effect)); M: velvetleaf, herbicidal effect rating (velvetleaf [9]; [26]): 3 (Herbicidal rate of 40% or more and less than 70%); N: redroot pigweed, herbicidal effect rating (redroot pigweed [10]; [26]): 5 (Herbicidal rate of 90% or more (almost completely withered)); O: lambsquarters, herbicidal effect rating (lambsquarters [11]; [26]): 4 (Herbicidal rate of 70% or more and less than 90%); P: chickweed, herbicidal effect rating (chickweed [12]; [26]): 5 (Herbicidal rate of 90% or more (almost completely withered)); R: persian speedwell, herbicidal effect rating (persian speedwell [13]; [26]): 5 (Herbicidal rate of 90% or more (almost completely withered)) |
